From US9975878B2, “Substituted triazine BMI-1 inhibitors” (PTC Therapeutics, Inc., priority 2013, dated 2018)

Tests used:
Bmi-1 protein = assay: Sandwich ELISA Assay: Bmi-1 protein level in HT-1080 cells treated with test compounds; format: cell-based
Outline: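 HT-1080 cells exposed to compounds (final DMSO 0.5%) for 40-48 h at 37° C, 5% CO2, then lysed. Bmi-1 quantified by sandwich ELISA (mouse anti-Bmi-1 capture, rabbit anti-Bmi-1 detection, HRP anti-rabbit, TMB), read at OD450 with OD570 reference, against recombinant GST-Bmi-1 standard curve (0-8000 pg/mL).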

Compound	melting point	EC50 (Bmi-1 protein)
Nc1nc(Nc2ccc(OC(F)F)nc2)nc(-n2c(C3CC3)nc3c(F)cc(F)cc32)n1 [Cpd 91, 6-(2-cyclopropyl-4,6-difluoro-1H-benzimidazol-1-yl)-N-[6-(difluoromethoxy)pyridin-3-yl]-1,3,5-triazine-2,4-diamine]	128 to 130 °C	0.01 to 0.1 µM
Nc1nc(Nc2ccc(OC(F)F)c(F)c2)nc(-n2c(C3CC3)nc3c(F)cc(F)cc32)n1 [Cpd 90, 6-(2-cyclopropyl-4,6-difluoro-1H-benzimidazol-1-yl)-N-[4-(difluoromethoxy)-3-fluorophenyl]-1,3,5-triazine-2,4-diamine]	196 to 198 °C	0.01 to 0.1 µM
Nc1nc(Nc2ccc(OC(F)(F)F)cc2)nc(-n2c(C3CC3)nc3c(F)cc(F)cc32)n1 [Cpd 92, 6-(2-cyclopropyl-4,6-difluoro-1H-benzimidazol-1-yl)-N-[4-(trifluoromethoxy)phenyl]-1,3,5-triazine-2,4-diamine]	213 to 215 °C	0.1 to 3 µM
Nc1nc(Nc2ccc(OC(F)F)c(F)c2)nc(-n2c(C(F)F)nc3ccccc32)n1 [Cpd 104, N-[4-(difluoromethoxy)-3-fluorophenyl]-6-[2-(difluoromethyl)-1H-benzimidazol-1-yl]-1,3,5-triazine-2,4-diamine]	201 to 203 °C	0.01 to 0.1 µM
Nc1nc(Nc2ccc(C(F)(F)F)cc2)nc(-n2c(C(F)F)nc3ccccc32)n1 [Cpd 102, 6-[2-(difluoromethyl)-1H-benzimidazol-1-yl]-N-[4-(trifluoromethyl)phenyl]-1,3,5-triazine-2,4-diamine]	197 to 199 °C	0.01 to 0.1 µM
Nc1nc(Nc2ccc(OC(F)F)cc2)nc(-n2c(CF)nc3ccccc32)n1 [Cpd 108, N-[4-(difluoromethoxy)phenyl]-6-[2-(fluoromethyl)-1H-benzimidazol-1-yl]-1,3,5-triazine-2,4-diamine]	166 to 168 °C	0.01 to 0.1 µM
Nc1nc(Nc2ccc(C(F)(F)F)nc2)nc(-n2c(CF)nc3ccccc32)n1 [Cpd 111, 6-[2-(fluoromethyl)-1H-benzimidazol-1-yl]-N-[6-(trifluoromethyl)pyridin-3-yl]-1,3,5-triazine-2,4-diamine]	178 to 180 °C	0.1 to 3 µM
Nc1nc(Nc2ccc(OC(F)F)cc2)nc(-n2c(C3CC3)nc3c(F)cc(F)cc32)n1 [Cpd 89, 6-(2-cyclopropyl-4,6-difluoro-1H-benzimidazol-1-yl)-N-[4-(difluoromethoxy)phenyl]-1,3,5-triazine-2,4-diamine]	181 to 183 °C	0.01 to 0.1 µM
Nc1nc(Nc2ccc(OC(F)(F)F)cc2)nc(-n2c(C(F)F)nc3ccccc32)n1 [Cpd 106, 6-[2-(difluoromethyl)-1H-benzimidazol-1-yl]-N-[4-(trifluoromethoxy)phenyl]-1,3,5-triazine-2,4-diamine]	138 to 139 °C	0.01 to 0.1 µM
